Patent US20250332109A1 (Veradermics, Incorporated, priority 2024, published 2025)
Where two headings read alike, the source gives them in different places.

Key:
male adults with AGA = conditions: 5 mg oral at bedtime; 24 week follow up; cited from earlier work
patients = conditions: chronic therapy; initially, then recovers; cited from earlier work
hypertensive patients = conditions: intravenous infusion; cited from earlier work
[1] = primarily by conjugation with glucuronic acid; cited from earlier work
[2] = tested on: person with androgenetic alopecia; conditions: 1.25 mg QID
[3] = cited from earlier work
[4] = tested on: person with androgenetic alopecia; test: Case study: person with androgenetic alopecia and hypertension treated with oral minoxidil; conditions: 0.625 mg four times a day
rabbits = conditions: oral, 5 times the maximum recommended oral antihypertensive human dose; cited from earlier work
mice = conditions: dietary, up to 2 years, 10, 25, and 63 mg/kg/day; cited from earlier work
subjects = conditions: topical foam 5% versus vehicle topical foam; 404 subjects enrolled; cited from earlier work

Nc1cc(N2CCCCC2)nc(N)[n+]1[O-] [minoxidil]
subjects reporting edema (male adults with AGA): 2.9%
subjects reporting vertigo (male adults with AGA): 2.9%
temporary decrease in hematocrit, hemoglobin, and erythrocyte count (hemodilution) (patients): approximately 7%
steady state plasma concentration associated with significant (>5 beats per minute) changes in heart rate (hypertensive patients): above 20 ng/mL
fraction of oral dose metabolized [1]: About 90%
unwanted hair growth or other adverse events, including cardiac effects [2]: No unwanted hair growth or other adverse events
dose dependence of PK ([3]; 2.5 mg, 5 mg, 10 mg oral, PK and urinary excretion data): dose-independent PK
duration plasma concentrations above 20 ng/mL ([3]; 5 mg dose level): around 1 h
duration plasma concentrations above 20 ng/mL ([3]; 10 mg dose level): around 2 h
observed half-life ([3]; immediate release formulation, healthy subjects): around 1 h
effect on blood pressure ([3]; normotensive subjects, 2.5 mg, 5 mg, or 10 mg oral): little effect on blood pressure
reductions in blood pressure [4]: did not experience significant reductions in blood pressure
unwanted hair growth or other adverse events [4]: No unwanted hair growth or other adverse events
fetal resorption (rabbits): increased fetal resorption
incidence of malignant lymphomas in females (mice): increased incidence of malignant lymphomas
SAEs reported in treated subjects (subjects): Six
